Source: patent publication US7700637B2, “Organic compounds” (Novartis AG, priority 2003, dated 2010)

test system: not given; test: not given; conditions: not given

Structure (SMILES)	melting point
Cc1cccc(NS(=O)(=O)c2ccc(OCc3nc(-c4ccccc4)oc3C)cc2)c1C(=O)O [Example 1, 2-Methyl-6-[4-(5-methyl-2-phenyl-oxazol-4-ylmethoxy)-benzenesulfonylamino]-benzoic acid]	167 to 170 °C
CCCOc1ccc(C(=O)O)c(OCc2ccc(OCCc3nc(-c4ccccc4)oc3C)cc2)c1 [Example 15, 2-{4-[2-(5-Methyl-2-phenyl-oxazol-4-yl)-ethoxy]-benzyloxy}-4-propoxy-benzoic acid]	108 to 109 °C
Cc1oc(-c2ccccc2)nc1CCOc1ccc(S(=O)(=O)Nc2ccccc2C(=O)O)cc1 [Compd 4-21, 2-{4-[2-(5-Methyl-2-phenyl-oxazol-4-yl)-ethoxy]-benzenesulfonylamino}-benzoic acid]	136 to 138 °C
Cc1oc(-c2ccc(F)cc2)nc1COc1ccc(S(=O)(=O)Nc2cc(Cl)ccc2C(=O)O)cc1 [Compd 4-5, 4-Chloro-2-{4-[2-(4-fluoro-phenyl)-5-methyl-oxazol-4-ylmethoxy]-benzenesulfonylamino}-benzoic acid]	223 to 225 °C
Cc1oc(-c2ccccc2)nc1CCOc1ccc(S(=O)(=O)Nc2cc(-c3ccccc3)ccc2C(=O)O)cc1 [Compd 4-19, 3-{4-[2-(5-Methyl-2-phenyl-oxazol-4-yl)-ethoxy]-benzenesulfonylamino}-biphenyl-4-carboxylic acid]	177 to 179 °C
Cc1oc(-c2ccccc2)nc1COc1ccc(S(=O)(=O)Nc2cc(-c3ccccc3)ccc2C(=O)O)cc1 [Compd 4-2, 3-[4-(5-Methyl-2-phenyl-oxazol-4-ylmethoxy)-benzenesulfonylamino]-biphenyl-4-carboxylic acid]	75 to 77 °C
Cc1oc(-c2ccccc2)nc1COc1cccc(COc2cc(Cl)ccc2C(=O)O)c1 [Example 17, 4-Chloro-2-[3-(5-methyl-2-phenyl-oxazol-4-ylmethoxy)-benzyloxy]-benzoic acid]	168 °C
Cc1oc(-c2ccccc2)nc1COc1ccc(S(=O)(=O)Nc2cc3ccccc3cc2C(=O)O)cc1 [Compd 4-26, 3-[4-(5-Methyl-2-phenyl-oxazol-4-ylmethoxy)-benzenesulfonylamino]-naphthalene-2-carboxylic acid]	234 to 236 °C
Cc1oc(-c2ccccc2)nc1COc1ccc(COc2cc(Cl)ccc2C(=O)O)cc1 [Compd 21-11, 4-Chloro-2-[4-(5-methyl-2-phenyl-oxazol-4-ylmethoxy)-benzyloxy]-benzoic acid]	155 to 156 °C
COc1cc(NS(=O)(=O)c2ccc(OCc3nc(-c4ccccc4)oc3C)cc2)c(C(=O)O)cc1OC [Compd 4-24, 4,5-Dimethoxy-2-[4-(5-methyl-2-phenyl-oxazol-4-ylmethoxy)-benzenesulfonylamino]-benzoic acid]	206 to 207 °C
Cc1oc(-c2ccccc2)nc1COc1ccc(COc2cccc(F)c2C(=O)O)cc1 [Compd 21-6, 2-Fluoro-6-[4-(5-methyl-2-phenyl-oxazol-4-ylmethoxy)-benzyloxy]-benzoic acid]	167 to 168 °C
Cc1oc(-c2ccccc2)nc1CCOc1ccc(COc2cc(Cl)ccc2C(=O)O)cc1 [Compd 21-12, 4-Chloro-2-{4-[2-(5-methyl-2-phenyl-oxazol-4-yl)-ethoxy]-benzyloxy}benzoic acid]	148 to 149 °C
Cc1oc(-c2ccc(C(F)(F)F)cc2)nc1COc1ccc(S(=O)(=O)Nc2ccccc2C(=O)O)cc1 [Compd 4-8, 2-{4-[5-Methyl-2-(4-trifluoromethyl-phenyl)-oxazol-4-ylmethoxy]-benzenesulfonylamino}-benzoic acid]	195 °C
Cc1oc(-c2ccccc2)nc1COc1ccc(S(=O)(=O)Nc2cccc(Cl)c2C(=O)O)cc1 [Compd 4-1, 6-Chloro-2-[4-(5-methyl-2-phenyl-oxazol-4-ylmethoxy)-benzenesulfonylamino]-benzoic acid]	170 to 172 °C
Cc1oc(-c2ccccc2)nc1CCOc1ccc(COc2cc(C(F)(F)F)cc(C(F)(F)F)c2C(=O)O)cc1 [Compd 21-4, 2-{4-[2-(5-Methyl-2-phenyl-oxazol-4-yl)-ethoxy]-benzyloxy}-4,6-bis-trifluoromethyl-benzoic acid]	162 to 163 °C
Cc1oc(-c2ccccc2)nc1COCc1ccc(COc2cc(Cl)ccc2C(=O)O)cc1 [Compd 21-19, 4-Chloro-2-[4-(5-methyl-2-phenyl-oxazol-4-ylmethoxymethyl)-benzyloxy]-benzoic acid]	151 °C
COc1ccc(NS(=O)(=O)c2ccc(OCc3nc(-c4ccccc4)oc3C)cc2)c(C(=O)O)c1 [Compd 4-16, 5-Methoxy-2-[4-(5-methyl-2-phenyl-oxazol-4-ylmethoxy)-benzenesulfonylamino]-benzoic acid]	190 to 194 °C
Cc1oc(-c2ccccc2)nc1COc1ccc(S(=O)(=O)Nc2ccccc2C(=O)O)cc1 [Compd 4-11, 2-[4-(5-Methyl-2-phenyl-oxazol-4-ylmethoxy)-benzenesulfonylamino]-benzoic acid]	195 to 198 °C
Cc1oc(-c2ccccc2)nc1COCc1cccc(COc2cc(Cl)ccc2C(=O)O)c1 [Example 18, 4-Chloro-2-[3-(5-methyl-2-phenyl-oxazol-4-ylmethoxymethyl)-benzyloxy]-benzoic acid]	137 °C
COc1cc(OC)c(C(=O)O)c(OCc2ccc(OCc3nc(-c4ccccc4)oc3C)cc2)c1 [Compd 21-2, 2,4-Dimethoxy-6-[4-(5-methyl-2-phenyl-oxazol-4-ylmethoxy)-benzyloxy]-benzoic acid]	182 to 183 °C

test system: C57BL ob/ob mice; test: glucose and insulin lowering activity in vivo in ob/ob mice; conditions: daily dose of about 30 mg/kg p.o. in the ob/ob mice
Protocol: The glucose and insulin lowering activity in vivo can be evaluated as follows:
Adult male C57BL ob/ob mice (Jackson Lab, Bar Harbor, Me.) at the age of 11 weeks are housed six per cage in a reversed light cycle room (light on from 6:00 p.m. to 6:00 a.m.) and given access to Purina rodent chow and water ad libitum. On day 1 tail blood samples are taken at 8:00 am and plasma glucose levels are determined. The animals are randomly assigned to the control and compound groups. The means of plasma glucose values of the groups were matched. Animals are then orally dosed with vehicle (0.5% carboxymethyl-cellulose with 0.2% Tween-80) or compounds (at 30 mg/kg) in vehicle. The mice are dosed daily for a total of 3 days. On day 4 basal blood samples are taken. The plasma samples are analyzed for glucose concentrations using a YS12700 Dual Channel Biochemistry Analyzer (Yellow Springs Instrument Co., Yellow Springs, Ohio) and insulin concentrations using an ELISA assay.

Structure (SMILES)	serum glucose levels	serum insulin levels
Cc1cccc(NS(=O)(=O)c2ccc(OCc3nc(-c4ccccc4)oc3C)cc2)c1C(=O)O [Example 1, 2-Methyl-6-[4-(5-methyl-2-phenyl-oxazol-4-ylmethoxy)-benzenesulfonylamino]-benzoic acid]	significantly lowers	significantly lowers

target: T1, PPARγ receptor (GST-hPPARγ LBD) (Homo sapiens, UniProt P37231); test: PPARγ receptor functional binding assay (CARLA, TR-FRET); format: biochemical; conditions: SRC-1 peptide recruitment
T1 construct: GST-hPPARγ LBD (amino acids 175-476); made in house; host or cells: E. coli BL21 (DE3)
T1 sequence (P37231 175-476 isoform P37231-2): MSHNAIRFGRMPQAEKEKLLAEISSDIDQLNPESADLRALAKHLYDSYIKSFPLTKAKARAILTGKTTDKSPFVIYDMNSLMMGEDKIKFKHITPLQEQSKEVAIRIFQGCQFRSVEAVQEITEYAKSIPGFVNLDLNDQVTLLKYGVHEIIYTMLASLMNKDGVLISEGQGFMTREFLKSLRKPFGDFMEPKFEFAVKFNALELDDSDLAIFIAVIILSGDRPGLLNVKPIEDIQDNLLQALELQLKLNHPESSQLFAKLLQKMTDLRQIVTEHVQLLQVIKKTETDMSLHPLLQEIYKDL
Protocol: (§1) The in vitro functional binding to the PPARα, PPARδ and PPARγ receptors is determined as follows:
(§2) The functional binding assays for the PPARα, PPARδ and PPARγ receptors are a variation of the coactivator-dependent receptor ligand assay (CARLA) (Krey et al., Molecular Endocrinology 1997, 11, 779-791). The present CARLA assays use a TR-FRET detection method previously reviewed (Hemmila, J. Biomol. Screening 1999, 4, 303-307; Mathis, J. Biomol. Screening 1999, 4, 309-313). All assays included 3 nM of the glutathione-S-transferase (GST) fusion proteins of either the hPPARα ligand binding domain (LBD) (amino acids 167-468) (GST-hPPARα LBD), GST-hPPARδ LBD (amino acids 139-442) or GST-hPPARγ LBD (amino acids 175-476); 3 nM Eu-labelled anti-GST antibody (Wallac); 30 nM biotinylated steroid receptor coactivator-1 (SRC-1) peptide (an N-terminal biotinylated peptide, […], derived from amino acids 676-700 of SRC-1); and 10 nM streptavidin-labelled allophycocyanin (APC; Prozyme). […] This brings the Eu-labelled anti-GST antibody and the strepavidin-labelled APC in close proximity, thereby facilitating fluorescence energy transfer. […] After mixing all components, the reaction mixture stands for 3 h at RT before reading the TR-FRET signal on a Wallac Victor 2 plate reader (measuring the ratio of signals at 665 nm and 620 nm). […]

Structure (SMILES)	EC50
Cc1cccc(NS(=O)(=O)c2ccc(OCc3nc(-c4ccccc4)oc3C)cc2)c1C(=O)O [Example 1, 2-Methyl-6-[4-(5-methyl-2-phenyl-oxazol-4-ylmethoxy)-benzenesulfonylamino]-benzoic acid]	~5 nM

target: T2, PPARδ receptor (GST-hPPARδ LBD) (Homo sapiens, UniProt Q03181); test: PPARδ receptor functional binding assay (CARLA, TR-FRET); format: biochemical; conditions: SRC-1 peptide recruitment
T2 construct: GST-hPPARδ LBD (amino acids 139-442); made in house; host or cells: E. coli BL21 (DE3)
T2 sequence (Q03181 139-441 limits assumed): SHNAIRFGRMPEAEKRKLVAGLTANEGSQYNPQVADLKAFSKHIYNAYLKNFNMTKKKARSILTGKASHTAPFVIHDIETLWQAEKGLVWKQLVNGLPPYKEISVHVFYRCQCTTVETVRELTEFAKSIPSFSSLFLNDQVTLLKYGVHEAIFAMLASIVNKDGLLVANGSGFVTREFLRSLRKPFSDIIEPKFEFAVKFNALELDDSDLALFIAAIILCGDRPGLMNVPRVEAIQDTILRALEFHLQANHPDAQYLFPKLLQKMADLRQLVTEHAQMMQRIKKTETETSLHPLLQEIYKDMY
T2 sequence (Q15788 676-700 partner limits assumed): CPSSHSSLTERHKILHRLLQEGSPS
Protocol: as §1, §2

Structure (SMILES)	EC50
Cc1cccc(NS(=O)(=O)c2ccc(OCc3nc(-c4ccccc4)oc3C)cc2)c1C(=O)O [Example 1, 2-Methyl-6-[4-(5-methyl-2-phenyl-oxazol-4-ylmethoxy)-benzenesulfonylamino]-benzoic acid]	~3500 nM

target: T3, PPARα receptor (GST-hPPARα LBD) (Homo sapiens, UniProt Q07869); test: PPARα receptor functional binding assay (CARLA, TR-FRET); format: biochemical; conditions: SRC-1 peptide recruitment
T3 construct: made in house; host or cells: E. coli BL21 (DE3)
T3 sequence (Q07869 167-468): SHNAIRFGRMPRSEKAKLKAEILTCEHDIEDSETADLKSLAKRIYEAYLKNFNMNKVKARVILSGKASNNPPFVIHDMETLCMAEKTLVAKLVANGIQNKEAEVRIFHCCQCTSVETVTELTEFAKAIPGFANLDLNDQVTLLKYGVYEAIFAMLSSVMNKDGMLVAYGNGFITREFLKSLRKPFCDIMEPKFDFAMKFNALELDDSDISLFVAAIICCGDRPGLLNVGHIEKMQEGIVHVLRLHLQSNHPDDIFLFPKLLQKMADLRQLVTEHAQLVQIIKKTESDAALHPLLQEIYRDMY
Protocol: as §1, §2

Structure (SMILES)	EC50
Cc1cccc(NS(=O)(=O)c2ccc(OCc3nc(-c4ccccc4)oc3C)cc2)c1C(=O)O [Example 1, 2-Methyl-6-[4-(5-methyl-2-phenyl-oxazol-4-ylmethoxy)-benzenesulfonylamino]-benzoic acid]	~8 nM
